These results are taken from a melting point compilation (Tetko et al.; mined from patent text by program, amines drawn as free bases though some values may be those of a salt).

A word on the melting point: it is the temperature of the solid-liquid transition.

With `COc1ccc(-c2ccc3c(c2)C(C)(C)CCC3(C)C)cc1-c1ccc(C(=O)O)cc1`, the melting point lay within 148 to 152 °C. The compound `O=C(NCc1ccncc1)c1cc(-n2cnn(Cc3ccc(F)cc3)c2=O)n[nH]1` yielded a melting point of 262 to 263 °C.

Turning to `N#Cc1ccc2c(c1)Sc1ccc([N+](=O)[O-])cc1C=C2`, the melting point was 234 to 236 °C. `COc1ccc(CN2CCC(N=C(NC#N)N3CCc4ccccc4C3)CC2)cc1` gave a melting point of 135 to 137 °C. Take `CC(=O)c1ccc2c(c1)ncn2-c1cccc(-c2ccccn2)c1`: the melting point is 158 to 159 °C. `CCC1(CC)COC(=O)N1c1nc(-c2ccc(C#N)cc2)c(F)s1` came in with a melting point of 151 to 153 °C. Consider `O=C(O)CC(=O)N1CCSCC1`, for which the melting point fell in the range of 119 to 120 °C.

Take `CC(=O)SCC(Cc1ccccc1)C(=O)Nc1cc(C(=O)O)ccc1N1CCCC1` (centres undefined): the melting point lay in the range of 217 to 222 °C.

Compound `Cc1cccc2cc(C(=O)Cn3ccnc3)ccc12` gave a melting point of 264 °C. As for `COc1cc(C(=O)Nc2ccc(N3CCCC3)cc2C(C)=O)ccc1OCc1ccccc1`, the figure is 152 to 154 °C.

`CC1Cc2cc(Br)ccc2C1=O` (centres undefined): the melting point was 55 °C. As for `COc1cccc2c1CC(C(=O)NCCOc1ccc(CC(=O)O)cc1)N2S(=O)(=O)c1ccc(-c2cccc(C(F)(F)F)c2)cc1` (centres undefined), the figure is 96 °C. To `Cc1ccc(-n2c(-c3cc(C)ccc3C=Cc3ccccc3)ccc2-c2cc(C)ccc2C=Cc2ccccc2)cc1` belongs 314 to 316 °C. To `COC(=O)c1cccc(/C=C/c2cc3ccccc3o2)c1` belongs 98 to 100 °C; to `N#Cn1c(SCC(=O)N2CCCc3ccccc32)nc2ccccc21`, 153 to 154 °C.

The compound `CCCCCc1c(C(C)C)nc(C(C)C)c(CO)c1-c1ccc(F)cc1` showed a melting point of 100 to 101 °C. As for `CCCc1cc(=O)[nH]c2cc(OC)cc(OC)c12`, the figure is 193 to 196 °C. Compound `CCCCCCCCCCCCS(=O)(=O)c1cc(C(=O)O)c([N+](=O)[O-])c(S(=O)(=O)CCCCCCCCCCCC)c1` gave a melting point of 153 to 154 °C. `CCOC(=O)COc1cc(OCC=C(C)C)ccc1C(=O)C=Cc1ccc(C(C)(C)C)cc1` returned a melting point of 78 to 79 °C. As for `O=[N+]([O-])c1cc(Cn2ccnc2)ccc1NCc1cccnc1`, the figure is 171 °C; as for `CC(C)Oc1ccc(NC(=O)C2(C)CC2)cc1C(F)(F)F`, 106 to 109 °C. `COc1cc2oc(=O)c(CCN3CCN(c4ccccc4OC)CC3)c(C)c2cc1OC` registered a melting point of 174 to 175 °C. To `CC(C)C(=O)N[C@@H]1CCc2c(c3cc(-c4ccno4)ccc3n2Cc2cccc(F)c2)C1` belongs 238 to 241 °C; to `CC(C)Nc1nc(N)nc2c1ncn2C1C=CC(CO)C1` (centres undefined), 87 to 90 °C; to `CC(C)(C)C(O)C(CS(=O)(=O)c1ccccc1)n1cncn1` (centres undefined), 145 °C.

`CCC(=O)Cc1ccc(OCc2nnn[nH]2)cc1` registered a melting point of 148 to 150 °C.

For the compound `C[C@@H](n1cnc2cc(Br)ccc2c1=O)[C@](O)(Cn1cncn1)c1ccc(F)cc1F`, the melting point was in the range of 109 to 112 °C. To `Cc1c(NC(=O)c2ccc(-c3ccc4c(c3)CCCCO4)cc2)ccc2cc(CN3CCCC3)cnc12` belongs 162 to 163 °C; to `C#Cc1cc(F)c(-n2c(=O)cc(C(F)(F)F)n(C)c2=O)c2c1OC(C)C2` (centres undefined), 69 to 72.5 °C; to `CCOC1CC2(C)C(CCC3C4CC(C)C(C(C)=O)C4(C)CC(=O)C32)CC1O` (centres undefined), 178 to 179 °C. Turning to `C=CCOc1cccc2c(=O)cc(N3CCOCC3)oc12`, the melting point was 134 to 136 °C. Compound `O=C1C(c2ccccc2)=C(c2ccccc2)C(=O)N1c1ccc(Cl)cc1` yielded a melting point of 198 to 199 °C.

Regarding `CC12CCC3C(CCC4CC(O)CCC43C)C1CCC2C#CBr` (centres undefined), the melting point lay within 165 to 167 °C. As for `CS(=O)(=O)c1ccc(C(=O)O)c(F)c1F`, the figure is 214 to 215 °C. Regarding `COc1nc2cc(Cl)c(Cl)c(CSC)c2nc1OC`, the melting point was 143 to 145 °C. For the compound `CC(C)(C)NC1CCCCC1O` (centres undefined), the melting point lay in the range of 42 to 44 °C. In turn, `N#Cc1ccc(C(=O)c2cc(C(F)(F)F)ccc2O)cc1` returned a melting point of 118 °C.

In the case of `Cc1ccc2occ(C3CCN(CCc4cc5c(s4)CCCC(=O)N5)CC3)c2c1`, the melting point lay in the range of 156 to 158 °C. `COc1nc(SC)cnc1NS(=O)(=O)c1cccc(Cl)c1Cl`: the melting point lay in the range of 141 to 142 °C.

For the compound `Cc1cc(C)c(-c2csc(N)n2)c(C)c1`, the melting point was 138 °C. To `CCCc1nc(C)n2nc(S)nc2c1Cc1ccc([N+](=O)[O-])cc1` belongs 210 °C. Turning to `COc1cccc(-c2cccc(Oc3nc(OC)cc(OC)n3)c2C(=O)O)n1`, the melting point lay within 158 to 160 °C. To `CCCCCCOc1cc(C)ccc1C(=O)c1cccc(C(=O)O)c1` belongs 118 °C; to `CCOC(=O)c1c(CC)nn(C)c1NC(=O)Cc1ccc(OC)cc1`, 112 to 113 °C; to `CCOC(=O)Cc1ccc(-c2cn3cccnc3n2)cc1`, 155 to 158 °C.

As to `O=S(=O)(Nc1ccccc1)c1ccc(-c2cnn3c(O)ncnc23)cc1`, the melting point fell in the range of 274 to 277 °C. To `CCc1cc2c(=O)c(C(=O)O)cn(Cc3ccc(-c4ccccc4-c4nnn[nH]4)cc3)c2s1` belongs 153 to 157 °C; to `CNc1ccc(-c2nc(N3CCOCC3)c3sc(C(C)(C)Nc4ncc(C(=O)NO)cn4)cc3n2)cn1`, 200 to 205 °C; to `O=C1Nc2ccc(-c3cccc(Cl)c3)cc2C2(CCCCC2)O1`, 165 to 168 °C. Compound `CCn1nc(-c2ccccc2)c(C(=O)O)c(Nc2cccnc2)c1=O` displayed a melting point of 255 to 257 °C. As for `O=c1[nH]ncc2[nH]c(-c3ccc(OC(F)F)c(OC4CCC4)c3)c(-c3ccccc3)c12`, the figure is 280 to 284 °C.

`CC1OC(N2CC(C)(I)C(=O)NC2=O)CC1O[Si](c1ccccc1)(c1ccccc1)C(C)(C)C` (centres undefined): the melting point amounted to 142 °C.

Take `O=C=NCCC12CCCn3c1c(c1ccccc13)CCO2` (centres undefined): the melting point fell in the range of 89 to 91 °C. As for `COC(=O)CCCOc1cc([N+](=O)[O-])c(CBr)cc1OC`, the figure is 68 to 70 °C.

The compound `CC(C)(C)N(Cc1ccccc1)C(=O)C=c1sc2n(c1=O)Cc1ccccc1N=2` returned a melting point of 195 to 197 °C.

The compound `C#CC1N(C(=O)Oc2ccccc2)c2cc(OC(=O)C(C)(C)C)ccc2C23OC12CCCC3=O` (centres undefined) came in with a melting point of 164 to 166 °C.

For the compound `CN(C)c1ccc(-c2cc(F)c(F)cc2-c2ccc(S(N)(=O)=O)cc2)cc1Cl`, the melting point lay within 193 to 194 °C. To `CCCCOCCOc1ccc(-c2ccc3c(c2)C=C(C(=O)OC)CCN3c2ccc(S(=O)(=O)NC)cc2)cc1` belongs 142 to 146 °C; to `Cc1ccccc1-c1nc2c3ccccc3ccn2c1N`, 151 to 153 °C.

The compound `COc1ccc(CC(C#N)=CNc2ccccc2)c2ccccc12` registered a melting point of 188 to 189 °C. To `NNc1nc(-c2ccccc2)co1` belongs 158 to 160 °C; to `CN1C(=O)[C@@H](NC(=O)c2ccc(C(F)(F)F)cc2)N=C(c2ccccc2)c2ccccc21`, 125 to 127 °C. `Cc1noc(C)c1-c1ccc(OC2SCC(O)C(O)C2O)cn1` (centres undefined) displayed a melting point of 138 °C.

Turning to `CCc1ccc(-c2coc3c(C)c(C)c(N)c(C)c23)cc1`, the melting point is 68 to 69 °C. `CCCCc1nc(=O)c2cc(C#C[Si](C)(C)C)c(F)cc2[nH]1` returned a melting point of 192 °C. Turning to `C=CCOC(=O)c1ccccc1OS(=O)(=O)NC(=O)Nc1nc(OC)cc(OC)n1`, the melting point was 110 to 112 °C. To `Cc1cc2c3c(c1)[nH]c(=O)n3CC(C)NC2` (centres undefined) belongs 199 °C; to `CCNC(=O)CNc1c(C#N)cnn1-c1ccc(C(F)(F)F)cc1Cl`, 144 to 145 °C; to `COC(=O)C(=O)c1ccc(N(C=O)CCOc2ccc3ccccc3c2)cc1`, 103 to 104 °C.

On to `O=C1CCCCC1c1cncc(Br)c1` (centres undefined), for which the melting point lay within 67 to 69 °C. In turn, `COc1ccc2[nH]c(CO)cc2c1C` registered a melting point of 133 to 135 °C. To `C=C(C)CC1(OC=C(C)C)CC=C(C)C(NC=O)=C1C` (centres undefined) belongs 109 °C.

Take `C=C(COCC(=C)C(=O)O)C(=O)O`: the melting point came out at 177 °C. As for `Cc1noc(NS(=O)(=O)c2ccccc2-c2ccc(-c3ncco3)cc2CN(C)C(=O)CCc2ccccc2)c1C`, the figure is 110 to 117 °C.

Take `Cc1ncccc1NC(=NC#N)NC(NC(=O)Cc1ccc(F)cc1)C(C)(C)C` (centres undefined): the melting point lay in the range of 166 to 167 °C. `COc1cc2ccccc2c(Br)c1O` showed a melting point of 100 to 101 °C. As for `Cc1oc(-c2ccccc2)nc1COc1ccc(COc2ccc(C(=O)c3ccccc3)c(O)c2)cc1`, the figure is 160 to 161 °C; as for `O=C(O)c1cnc2cc(I)ccc2n1`, 242 to 244 °C; as for `CC(=O)C(C#N)c1cccc(Br)c1` (centres undefined), 96 to 100 °C.

With `Cc1cccc(C)c1NC(=O)Cn1ccnc1`, the melting point lay within 160 to 162 °C. As for `CS(=O)(=O)c1ccc(Oc2ccc([N+](=O)[O-])c(NCCC(N)=O)c2)c(Cl)c1`, the figure is 135 °C.

Turning to `Cc1cc(Cl)ccc1-n1c(CF)nc2ccc(N)cc2c1=O`, the melting point was in the range of 191 to 193 °C.

With `CSc1ccccc1C=NO`, the melting point lay within 88 to 89 °C. Turning to `COc1cc(CO)ccc1OCc1nc(-c2cccc(OS(C)(=O)=O)c2)oc1C`, the melting point is 140 to 141 °C. Regarding `COC(=O)c1cc2c(C)ccc(C)c2n1OC(C)=O`, the melting point is 87 to 88 °C. Consider `CC12CCC3C(CCC4CC(O)CCC43C)C1CC=C2c1cccnc1` (centres undefined), for which the melting point is 198 to 199 °C.

`O=C(CCN1CCN(c2ccnc3ccccc23)CC1)c1csc2ccccc12`: the melting point was 134 to 136 °C. To `O=[N+]([O-])c1c(Br)nn(CCO)c1Br` belongs 103 to 105 °C. To `Cn1c2cc[nH]c(=O)c2c2cccc(F)c21` belongs 294 to 296 °C.
